ChEMBL document CHEMBL1201862, “PubChem BioAssay data set” (2004)
Active and inactive are the calls of the source.

Key:
[1] = biological target: T1, Probable nicotinate-nucleotide adenylyltransferase (Staphylococcus aureus (strain N315), UniProt P65502); type: functional, Staphylococcus aureus subsp. aureus N315;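 on IC50 Mean: confirmatory dose-response retesting of NadD inhibitor hits first found in an ultra-high-throughput screen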
[2] = biological target: T1, Probable nicotinate-nucleotide adenylyltransferase; type: functional, Staphylococcus aureus subsp. aureus N315; details: read-out: IC50_Mean
[3] = alpha-synuclein stem-loop luciferase translation blockers – H4 neuroglioma cells, luminescence, confirmation (AID 1988); type: functional, cell-based
Insulin-degrading enzyme [4] = biological target: T2, Insulin-degrading enzyme (Homo sapiens, UniProt P14735); assay: recombinant IDE activation, cell-free – biochemical, fluorescence polarization, counter-screen for IDE activator project, dose response (AID 588681)
T2 sequence (P14735 whole entry): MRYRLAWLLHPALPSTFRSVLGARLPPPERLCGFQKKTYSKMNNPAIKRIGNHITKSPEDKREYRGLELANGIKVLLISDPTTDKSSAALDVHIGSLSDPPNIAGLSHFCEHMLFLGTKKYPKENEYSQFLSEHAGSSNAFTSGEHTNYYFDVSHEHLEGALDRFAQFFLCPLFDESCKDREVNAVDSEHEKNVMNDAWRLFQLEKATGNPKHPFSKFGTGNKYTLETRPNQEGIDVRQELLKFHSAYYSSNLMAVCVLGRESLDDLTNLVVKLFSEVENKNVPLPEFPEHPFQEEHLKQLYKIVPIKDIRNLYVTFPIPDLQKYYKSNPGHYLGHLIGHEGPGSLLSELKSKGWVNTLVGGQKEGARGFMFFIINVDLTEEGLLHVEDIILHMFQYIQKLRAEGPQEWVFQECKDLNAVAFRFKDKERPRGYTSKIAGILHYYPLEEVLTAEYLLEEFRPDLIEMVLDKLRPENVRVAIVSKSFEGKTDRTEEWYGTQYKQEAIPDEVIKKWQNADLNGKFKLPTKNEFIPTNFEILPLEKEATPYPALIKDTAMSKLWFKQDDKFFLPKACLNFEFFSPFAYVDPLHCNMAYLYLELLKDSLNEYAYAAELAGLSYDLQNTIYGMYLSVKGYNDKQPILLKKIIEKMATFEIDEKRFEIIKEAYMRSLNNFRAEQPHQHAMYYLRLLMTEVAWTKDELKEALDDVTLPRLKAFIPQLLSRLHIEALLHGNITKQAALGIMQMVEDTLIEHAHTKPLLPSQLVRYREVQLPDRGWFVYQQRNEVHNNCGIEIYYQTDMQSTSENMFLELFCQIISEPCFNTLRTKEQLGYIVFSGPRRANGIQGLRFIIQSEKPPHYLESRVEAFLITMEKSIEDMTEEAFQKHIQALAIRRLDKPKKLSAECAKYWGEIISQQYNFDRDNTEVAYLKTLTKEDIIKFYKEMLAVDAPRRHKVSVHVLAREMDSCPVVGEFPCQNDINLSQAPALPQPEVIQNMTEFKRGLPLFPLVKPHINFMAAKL

HEK293 [5] = assay: membrane integrity loss in HEK cells – cell-based, fluorescence, cytotoxicity control for IDE activator project, dose response (AID 588440); type: functional; details: Homo sapiens;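 further: cytotoxicity by LDH release measuring loss of membrane integrity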
HEK293 [6] = assay: optical interference in Abeta FP readout, dose response, artefact control for IDE activator project, biochemical, fluorescence polarization (AID 588442); type: functional, cell-based; details: Homo sapiens
[7] = biological target: T3, Short transient receptor potential channel 4 (Mus musculus, UniProt Q9QUQ5); assay: block of DAMGO-driven TRPC4 calcium entry – cell-based, HEK293 TRPC4/mu-opioid, Fluo-4 calcium, dose response (AID 434942); type: functional;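 further: potency of inhibitors blocking the TRPC4 calcium response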
T3 sequence (Q9QUQ5 whole entry): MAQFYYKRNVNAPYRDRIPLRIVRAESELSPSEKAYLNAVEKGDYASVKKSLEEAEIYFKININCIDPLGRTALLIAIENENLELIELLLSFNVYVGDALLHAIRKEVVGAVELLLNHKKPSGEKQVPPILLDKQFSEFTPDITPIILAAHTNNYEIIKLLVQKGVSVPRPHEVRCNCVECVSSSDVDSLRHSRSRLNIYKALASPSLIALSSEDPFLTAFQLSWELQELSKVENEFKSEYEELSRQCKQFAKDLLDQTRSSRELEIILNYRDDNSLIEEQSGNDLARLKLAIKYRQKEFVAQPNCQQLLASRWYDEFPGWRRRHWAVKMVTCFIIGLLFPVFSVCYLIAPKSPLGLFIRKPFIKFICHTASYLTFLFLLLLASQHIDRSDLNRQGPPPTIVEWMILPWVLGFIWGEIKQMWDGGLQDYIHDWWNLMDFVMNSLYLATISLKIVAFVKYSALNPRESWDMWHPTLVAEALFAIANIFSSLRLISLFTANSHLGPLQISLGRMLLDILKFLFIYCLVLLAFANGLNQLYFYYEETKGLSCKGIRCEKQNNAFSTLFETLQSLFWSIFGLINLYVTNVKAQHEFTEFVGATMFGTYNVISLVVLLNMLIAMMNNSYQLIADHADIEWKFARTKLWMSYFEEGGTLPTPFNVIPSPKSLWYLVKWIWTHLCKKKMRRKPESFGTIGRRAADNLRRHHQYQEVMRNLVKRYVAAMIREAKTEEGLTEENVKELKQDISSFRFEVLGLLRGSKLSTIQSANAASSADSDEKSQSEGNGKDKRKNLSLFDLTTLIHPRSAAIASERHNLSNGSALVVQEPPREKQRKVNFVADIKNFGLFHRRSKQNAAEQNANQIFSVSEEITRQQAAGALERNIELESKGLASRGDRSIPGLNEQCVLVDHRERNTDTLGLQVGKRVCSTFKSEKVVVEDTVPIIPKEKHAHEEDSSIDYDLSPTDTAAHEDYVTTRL

Insulin-degrading enzyme [8] = biological target: T2, Insulin-degrading enzyme; assay: cellular IDE activation of Abeta substrate cleavage – fluorescence polarization, HEK cells, dose response (AID 588439); type: functional, cell-based
[9] = Luminescence Cell-Based Dose Response HTS to Identify Inhibitors of 5'UTR Stem-Loop Driven Prion Protein mRNA Translation in H4 Neuroglioblastoma Cells. [Related pubchem assays: 1827 (Project Summary), 1813 (Primary HTS)]; type: functional
[10] = luciferase reporter signal suppression in cells – H4 neuroglioma cells, luminescence, dose response (AID 1990); type: functional, cell-based
[11] = THP-1 cell cytotoxicity, dose response, cytotoxicity control for non-replicating M. tuberculosis project (AID 489025); type: functional
[12] = Trypanosoma cruzi growth suppression in host cells – NIH3T3 host cells, beta-gal luminescence, confirmation (AID 2044); type: functional, cell-based;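 further: intracellular parasites grown in NIH/3T3 mouse fibroblasts as host cells; luminescent beta-galactosidase reporter signal from transgenic T. cruzi replicating inside host cells; inhibitors lower the luminescence signal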
[13] = biological target: T4, DNA repair and recombination protein RAD54-like (Homo sapiens, UniProt Q92698); assay: RAD54 Holliday junction migration blockers – biochemical, fluorescence, cherry-picked samples, dose series, confirmation (AID 651657); type: functional
T4 sequence (Q92698 whole entry): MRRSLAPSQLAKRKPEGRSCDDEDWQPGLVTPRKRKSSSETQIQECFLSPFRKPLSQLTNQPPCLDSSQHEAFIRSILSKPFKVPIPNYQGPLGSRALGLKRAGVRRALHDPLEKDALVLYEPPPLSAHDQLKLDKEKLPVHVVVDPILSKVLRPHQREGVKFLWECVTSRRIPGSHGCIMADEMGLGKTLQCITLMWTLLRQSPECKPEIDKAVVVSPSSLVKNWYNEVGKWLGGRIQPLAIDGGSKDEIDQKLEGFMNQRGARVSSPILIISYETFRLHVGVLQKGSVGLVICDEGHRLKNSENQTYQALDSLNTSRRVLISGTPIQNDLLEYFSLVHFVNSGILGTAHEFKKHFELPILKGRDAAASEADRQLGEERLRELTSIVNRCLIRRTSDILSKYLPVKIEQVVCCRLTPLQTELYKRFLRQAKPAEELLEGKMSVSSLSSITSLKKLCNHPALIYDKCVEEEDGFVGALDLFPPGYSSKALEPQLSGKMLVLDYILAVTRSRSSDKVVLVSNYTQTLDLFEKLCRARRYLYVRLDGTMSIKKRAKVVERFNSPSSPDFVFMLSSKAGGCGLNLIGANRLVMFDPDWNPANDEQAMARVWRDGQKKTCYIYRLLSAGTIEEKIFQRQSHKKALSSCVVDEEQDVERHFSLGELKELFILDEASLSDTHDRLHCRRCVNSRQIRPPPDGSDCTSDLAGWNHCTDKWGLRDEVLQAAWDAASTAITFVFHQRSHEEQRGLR

[14] = NIH3T3 cell viability loss – ATP luminescence, mouse fibroblasts, counter-screen, dose response (AID 2010); type: functional, cell-based;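 further: cells exposed to compound for about 90 hours before reading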
[15] = cytotoxicity toward MDA-MB-231 breast cancer cells – cell-based, CellTiter-Glo luminescence, cherry-pick, cytotoxicity control for RAD54 inhibitor project, dose response (AID 651692); type: functional
[16] = biological target: T5, Sentrin-specific protease 1 (Homo sapiens, UniProt Q9P0U3); assay: SENP1 catalytic domain blockers, concentration series – biochemical, kinetic FRET, dose response (AID 651697); type: functional; details: read-out: IC50_Mean
T5 sequence (Q9P0U3 whole entry): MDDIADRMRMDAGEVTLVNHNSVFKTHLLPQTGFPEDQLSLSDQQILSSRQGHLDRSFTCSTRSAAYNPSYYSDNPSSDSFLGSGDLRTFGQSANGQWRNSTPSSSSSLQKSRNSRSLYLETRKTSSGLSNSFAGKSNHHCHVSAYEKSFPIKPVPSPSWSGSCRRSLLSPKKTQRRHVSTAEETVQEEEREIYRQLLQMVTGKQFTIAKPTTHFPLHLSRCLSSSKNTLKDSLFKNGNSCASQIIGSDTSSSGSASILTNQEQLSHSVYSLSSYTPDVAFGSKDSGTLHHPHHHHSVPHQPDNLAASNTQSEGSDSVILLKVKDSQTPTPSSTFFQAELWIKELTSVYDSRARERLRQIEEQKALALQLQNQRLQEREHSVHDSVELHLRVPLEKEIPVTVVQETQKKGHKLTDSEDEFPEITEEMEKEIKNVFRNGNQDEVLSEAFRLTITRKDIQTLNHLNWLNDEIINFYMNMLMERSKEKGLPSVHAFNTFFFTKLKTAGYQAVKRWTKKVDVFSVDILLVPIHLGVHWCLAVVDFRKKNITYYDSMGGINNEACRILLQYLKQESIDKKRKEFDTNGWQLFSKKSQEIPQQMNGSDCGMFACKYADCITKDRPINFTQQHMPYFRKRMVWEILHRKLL

[17] = biological target: T5, Sentrin-specific protease 1; assay: Dose response confirmation of small molecule inhibitors of the catalytic domain of the SUMO protease, SENP1 in a FRET assay.; type: functional; details: read-out: IC50_Mean

T1 sequence (P65502 whole entry): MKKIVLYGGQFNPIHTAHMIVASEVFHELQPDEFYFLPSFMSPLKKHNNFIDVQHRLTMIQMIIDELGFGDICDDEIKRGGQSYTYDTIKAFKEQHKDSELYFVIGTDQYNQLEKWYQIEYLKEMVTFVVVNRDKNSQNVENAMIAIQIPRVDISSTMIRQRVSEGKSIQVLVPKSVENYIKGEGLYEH

## Cc1cc2[nH]c(=O)c(=O)[nH]c2cc1S(=O)(=O)N1CCN(c2cccc(C(F)(F)F)c2)CC1
[1]
  IC50: 9.57 µM (active)
[2]
  IC50: 29.2 µM (active)

## COc1ccc(/C=C2/SC(=S)N(CCCC(=O)Nc3ccccc3C(=O)O)C2=O)cc1
[3]
  EC50: 11.1 µM (active)
Insulin-degrading enzyme [4]
  EC50: > 54.6 µM (inactive)
HEK293 [5]
  IC50: > 89.1 µM (inactive)
HEK293 [6]
  EC50: 58.7 µM (inactive)
[7]
  EC50: 6.68 µM (active)
Insulin-degrading enzyme [8]
  EC50: > 54.6 µM (inactive)
[9]
  EC50: 11.2 µM (active)
[10]
  EC50: 11 µM (active)

## CCN(CC)CCSc1nnc2c3cc(C)ccc3n(Cc3ccccc3)c2n1
[11]
  CC50: 26.1 µM (active)
[12]
  EC50: 0.754 µM (active)
[13]
  AC50: 31.4 µM (active)
[14]
  EC50: > 60 µM (not active)
[15]
  AC50: 30.6 µM (active)

## C=CCOCCN1C(=O)C2C(c3ccccc3)C=CC(c3ccccc3)C2C1=O (configuration not stated)
[16]
  IC50: 6.05 µM (active)
[17]
  IC50: 4.3 µM (active)
